The values that follow come from patent US11612574B2 (priority 2020, dated 2023).

For data set [1], the target named is T1, sigma-1 receptor (Homo sapiens, UniProt Q99720). To be noted: cited from earlier work.
In data set [2] the test system is CD4+ and CD8+ lymphocytes. Conditions: cited from earlier work.
For data set [3], the system named is Candida albican. To be noted: in vivo; cited from earlier work.
In data set [4] the target is sigma-2 receptor (Homo sapiens, UniProt Q5BJF2). Conditions: cited from earlier work.
The subject of data set [5] is SARS-CoV-2. To be noted: cited from earlier work.
In data set [6] the target is T1, sigma-1 receptor. Conditions: cited from earlier work. The source holds these as a separate data set.
Data set [7] relates to SARS-CoV-2. The data set is classed as cell-based.
In data set [8] the test system is Calu-3 cells. As to the kind of experiment: Cell death and viability of Calu-3 cells (cytotoxicity, no virus). The data set is classed as cell-based, human. As to the method:
4. Cytotoxicity assays were conducted in parallel, for these no virus was added.
a. Cell viability: was assessed by staining cells with the ViaStain™ Calcein AM/Hoechst/PI Viability Kit (Nexcelom, Cat #CS5-V006-1) per manufacturer's instructions and imaging with the Celígo Imaging Cytometer (Nexcelom). Briefly, live and metabolically active cells were detected using the Calcein AM stain (Ex/Em: 488/520). Dead cells were detected using the propidium iodide stain (PI, Ex/Em: 493/636). Total number of cells were detected using the Hoechst-nuclear stain (Ex/Em: 352/461). Thus, cell viability was assessed by comparing live cells counts (normalized to total cell count) across treatment groups, and cell cytotoxicity was assessed through comparison of dead cell counts (normalized to total cells) across treatment groups.

Data set [9] has as its target sigma. To be noted: non-selective sigma binding assay; cited from earlier work.
Data set [10] has as its system interleukin-1beta and TNF-alpha. Conditions: in vivo; cited from earlier work.
Data set [11] concerns Vero E6 cells infected with SARS-CoV-2. As to the kind of experiment: Neutral red cytoprotection/cytotoxicity in Vero E6 cells infected with SARS-CoV-2. To be noted: Vero E6, dose response.

T1 sequence (Q99720 whole entry, species assumed): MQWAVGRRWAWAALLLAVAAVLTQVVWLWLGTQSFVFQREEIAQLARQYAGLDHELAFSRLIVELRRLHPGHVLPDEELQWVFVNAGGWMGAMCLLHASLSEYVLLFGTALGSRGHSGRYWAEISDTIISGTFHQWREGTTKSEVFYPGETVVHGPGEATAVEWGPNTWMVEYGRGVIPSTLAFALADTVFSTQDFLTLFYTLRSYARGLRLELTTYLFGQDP
Sequence of sigma-2 receptor (Q5BJF2 whole entry): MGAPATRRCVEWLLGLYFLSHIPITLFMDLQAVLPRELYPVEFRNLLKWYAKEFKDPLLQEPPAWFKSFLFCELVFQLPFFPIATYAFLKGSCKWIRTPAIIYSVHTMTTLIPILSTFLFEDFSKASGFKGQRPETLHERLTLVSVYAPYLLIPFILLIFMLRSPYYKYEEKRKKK

`CCN[C@@H](C)Cc1cccc(C(F)(F)F)c1` (racemic) [dexfenfluramine]: the sigma-1 receptor modulation result in [1] was “positive modulators”. For the same compound, the “number of CD4+ and CD8+ lymphocytes that produced IFN-gamma” value in data set [2] (HIV+ or HIV- patients) is reported as “increased”. In addition, the “number of CD8+ lymphocytes that produce TNF-alpha” value in data set [2] (HIV+ patients) is given as “increased”. In addition, the “amount of IL-2 produced by CD4+ and CD8+ lymphocytes” value in data set [2] (lymphocytes from HIV+ patients) is “increased”. In data set [3], the “CD3+ and CD8+ lymphocytes” value is reported as “marked increase”; the “numbers of NK1.1+ cells” value is “modest increase”.

For the compound `O=C(CCCN1CCC(O)(c2ccc(Cl)cc2)CC1)c1ccc(F)cc1` [Haloperidol], the “binding/activity at sigma-2 receptor” value in data set [4] was “low nM range”. Also, in data set [5], the “inhibition of SARS-CoV-2 in vitro” value is reported as “inhibit”.

For the compound `CCN(CCO)CCCC(C)Nc1ccnc2cc(Cl)ccc12` (centres unmarked) [hydroxy-chloroquine], the “inhibition of SARS-CoV-2 in vitro” value in data set [5] is “inhibit”.

In the case of `CCN(CC)CCCC(C)Nc1ccnc2cc(Cl)ccc12` (centres unmarked) [Chloroquine], the “binding/activity at sigma-2 receptor” value in data set [4] is listed as “low uM activity”. The “binding/activity at sigma-1 receptor” value in [6] was “mid-nM activity”.

For the compound `CCNC(C)Cc1cccc(C(F)(F)F)c1` (racemic) [fenfluramine, (RS)—N-ethyl-1-[3-(trifluoromethyl)phenyl]propan-2-amine], the “average viral replication (mNeonGreen fluorescence normalized to total cell count)” value in data set [7] is recorded as “about 2·10^3”. In addition, the “SARS-CoV-2 viral replication compared with control cells receiving only vehicle” value in [7] (Calu-3 cells, 50 mM fenfluramine as printed, 72 hr) is listed as “statistically significantly (p<0.0001) lower”. The “cytotoxicity (cell death and viability versus controls)” value is on record as “not cytotoxic” in data set [8] (20 μg/ml) and “cytotoxic” in [8] (40 μg/ml). The Ki in [9] is 266 nM. In addition, the sigma-1 receptor modulation entry in data set [1] is reported as “positive allosteric modulator”. In addition, the “production of interleukin-1beta and TNF-alpha” value in [10] was “suppressed”. For the same compound, the “neutral red signal, virus infected cells” value in [11] (SARS-CoV-2 infected MOI 0.1, FIG. 4B) was approximately 0.2. Further, the “neutral red signal, uninfected cells” value in data set [11] (uninfected cells, FIG. 4B) is recorded as approximately 1.0.

What is called Ki is the dissociation constant of the complex between target and ligand, obtained from inhibition or displacement.
